Assay results from patent publication US10183944B2 (Asana Biosciences, LLC, priority 2011, dated 2019).
Where a name gives a salt, the structure may show the parent alone.

Tests used:
JAK2 = JAK2 (Homo sapiens (Human), UniProt O60674); assay: Inhibition of enzymatic JAK2 kinase activity (TR-FRET); format: biochemical; conditions: read-out: IC50 JAK
Procedure, shortened: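 TR-FRET read-out (Eu antibody donor, Ulight poly Glu-Tyr acceptor, 665/615 nm ratio) after a 60 min RT kinase reaction with ATP, begun following 30 min compound–enzyme preincubation. Stopped by EDTA; inhibition expressed as 100 minus % activity of positive control.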

[1] = biological target: Syk (356-635 amino acids) catalytic domain (Homo sapiens (Human), UniProt P43405); assay: Inhibition of enzymatic Syk kinase activity (radiometric); format: biochemical; conditions: read-out: IC50 Syk
Procedure, shortened: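 Radiometric filter-binding format: 32P transfer from γ-32P-ATP onto pG4T, scintillation-counted after acid washes of P81 paper. Syk kinase domain (356-635), 0.035–7.5 ng per reaction, was exposed to compound for 30 minutes at room temperature before a 10-minute, 30° C. reaction with ATP (100 μM stock). Inhibition derived from counts with versus without compound.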

RBL2H3 cells = assay: Degranulation assay: β-hexosaminidase release during immune complex mediated degranulation; format: cell-based, rat; conditions: Rattus norvegicus, RBL-2H3, Assay Protocol B (96 well format); for inhibition at 1 µM: read-out: Degranulation % inhibition at 1 μM; for EC50: read-out: Degranulation EC50
Procedure: The objective of this assay was to examine by Fluorescence method the effect of compounds on β-hexosaminidase release during immune complex mediated degranulation in RBL2H3 cells. Compounds were tested for their ability to inhibit the ability of this immune complex to mediate β-hexosaminidase release, in an enzyme assay with […] as substrate. […] Emission 460 nm). [table] [table] RBL2H3 cells were maintained in MEM complete media containing 10% FBS at 70%-80% confluence in a mammalian cell culture CO2 incubator with 5% CO2 at 37° C. 2×10^5 cells/well were plated in 1 mL of complete media and incubated for 5 hours for cell attachment. Complete media was replaced with 1 mL of serum free MEM media containing 1.2 μg/mL of anti-DNP rat IgE as sensitizing agent and further incubated overnight with 5% CO2 at 37° C. […] Cells were further stimulated with 5 μg/mL of DNP-BSA for 60 minutes. Plates were centrifuged for 5 minutes at 1000 rpm and 25 μL of culture supernatant was transferred from each assay well into a 96 well black coated plate. 25 μL β-NAG substrate was added to this mixture and incubated at room temperature for 30 minutes. The reaction was terminated with 100 μL of stop solution and fluorescence was monitored. (Excitation 355 nm; Emission 460 nm) See, Sanderson, (2010), Cellular Immunology, 262(1): 28-34 and Silverman, (2006) MCB, 26(5):1826-1838, which are incorporated herein by reference. The % release of β-Hexosaminidase for the test compound was calculated using the following formula: RBL2H3 cells were maintained in MEM complete media containing 10% FBS at 70-80% confluence in a mammalian cell culture CO2 incubator with 5% CO2 at 37° C. 5×10^4 cells/well were plated in 200 μL of complete media containing 0.3 μg/mL of anti-DNP rat IgE as sensitizing agent for 24 hours at 37° C. & 5% CO2. The following day, cells were washed twice with PIPES buffer for 10 minutes at 37° C. and replenished with serum free MEM media. Cells were treated with various concentrations of test compounds (in 0.5% DMSO) for 15 minutes at 37° C. and 5% CO2. The cells were further stimulated with 0.1 μg/mL of DNP-BSA for 45 minutes. The plates were spun for 5 minutes at 2000 rpm and 25 μL of culture supernatant was then transferred from each assay well into a 96 well black coated plate. […] β-NAG substrate was added and incubated at RT for 30 minutes. After incubation with substrate, 150 μL of stop solution was added and fluorescence was monitored. (Excitation 355 nm; Emission 460 nm). See, Yamamoto, JPET, 306(3):1174-1181 (2003) and Taylor, MCB, 15(8): 4149-4157 (1995), which are herein incorporated by reference. Release of β-hexosaminidase during the degranulation process by immune complex mediated FcεRI stimulation is through the SYK pathway. The % inhibition of β-hexosaminidase release by Syk inhibitor gives information with regard to its Syk inhibition potency.

Chain of JAK2 (O60674 808-1132): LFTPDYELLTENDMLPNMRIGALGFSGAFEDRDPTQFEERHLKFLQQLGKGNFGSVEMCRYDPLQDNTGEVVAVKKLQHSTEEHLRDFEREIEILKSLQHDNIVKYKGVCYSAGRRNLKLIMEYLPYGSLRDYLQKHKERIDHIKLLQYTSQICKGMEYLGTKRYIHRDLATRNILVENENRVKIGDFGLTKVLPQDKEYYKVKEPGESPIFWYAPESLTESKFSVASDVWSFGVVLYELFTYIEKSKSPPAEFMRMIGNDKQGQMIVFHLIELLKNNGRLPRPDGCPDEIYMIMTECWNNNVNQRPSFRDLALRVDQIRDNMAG

| SMILES | IC50 (JAK2) | IC50 [1] | inhibition at 1 µM (RBL2H3 cells) | EC50 (RBL2H3 cells) |
| --- | --- | --- | --- | --- |
| O=c1[nH]ncc2nc(N3CCCCCC3)nc(Nc3ccc(N4CCOCC4)cc3)c12 [Example 60, 2-(azepan-1-yl)-4-((4-morpholinophenyl)amino)pyrimido[4,5-d]pyridazin-5(6H)-one] | < 10 nM | < 10 nM | 100% | 18 nM |
| N#CCC1CCN(c2nc(Nc3ccc(N4CCC(CC(=O)O)CC4)cc3)c3c(=O)[nH]ncc3n2)CC1 [Example 71, 2-(1-(4-((2-(4-(cyanomethyl)piperidin-1-yl)-5-oxo-5,6-dihydropyrimido[4,5-d]pyridazin-4-yl)amino)phenyl)piperidin-4-yl)acetic acid] | > 100 nM | > 100 nM | 65% | 1020 nM |
| O=C(O)CC1CCN(c2ccc(Nc3nc(N4CCCCCCC4)nc4cn[nH]c(=O)c34)cc2)CC1 [Example 88, 2-(1-(4-((2-(azocan-1-yl)-5-oxo-5,6-dihydropyrimido[4,5-d]pyridazin-4-yl)amino)phenyl)piperidin-4-yl)acetic acid] | < 10 nM | < 10 nM | 100% | 76 nM |
| O=C(O)CC1CCC(c2ccc(Nc3nc(N4CCCCCC4)nc4cn[nH]c(=O)c34)cc2)CC1 (centres unmarked) [Example 91, 2-(4-(4-((2-(azepan-1-yl)-5-oxo-5,6-dihydropyrimido[4,5-d]pyridazin-4-yl)amino)phenyl)cyclohexyl)acetic acid] | < 50 nM | < 10 nM | 100% | 154 nM |
| O=C(O)CCCOc1ccc(Nc2nc(N3CCCCCC3)nc3cn[nH]c(=O)c23)cc1 [Example 92, 4-(4-((2-(azepan-1-yl)-5-oxo-5,6-dihydropyrimido[4,5-d]pyridazin-4-yl)amino)phenoxy)butanoic acid] | < 50 nM | < 10 nM | 100% | 111 nM |
| O=c1[nH]ncc2nc(N3CCCCCC3)nc(Nc3ccc(OCCN4CCOCC4)cc3)c12 [Example 93, 2-(azepan-1-yl)-4-((4-(2-morpholinoethoxy)phenyl)amino) pyrimido[4,5-d]pyridazin-5(6H)-one] | < 50 nM | < 50 nM | 49% | – |
| CN1CCN(CCOc2ccc(Nc3nc(N4CCCCCC4)nc4cn[nH]c(=O)c34)cc2)CC1 [Example 95, 2-(azepan-1-yl)-4-((4-(2-(4-methylpiperazin-1-yl)ethoxy)phenyl)amino)pyrimido[4,5-d]pyridazin-5(6H)-one] | < 50 nM | < 50 nM | 35% | – |
| O=C(O)CC1CCN(CCOc2ccc(Nc3nc(N4CCCCCC4)nc4cn[nH]c(=O)c34)cc2)CC1 [Example 96, 2-(1-(2-(4-((2-(azepan-1-yl)-5-oxo-5,6-dihydropyrimido[4,5-d]pyridazin-4-yl)amino)phenoxy)ethyl)piperidin-4-yl) acetic acid] | < 10 nM | < 10 nM | 85% | 280 nM |
| O=C(O)C1CCN(CCOc2ccc(Nc3nc(N4CCCCCC4)nc4cn[nH]c(=O)c34)cc2)CC1 [Example 98, 1-(2-(4-((2-(azepan-1-yl)-5-oxo-5,6-dihydropyrimido[4,5-d]pyridazin-4-yl)amino)phenoxy)ethyl)piperidine-4-carboxylic acid] | < 50 nM | < 50 nM | 62% | 593 nM |
| NC(=O)CC1CCN(c2ccc(Nc3nc(N4CCCCCC4)nc4cn[nH]c(=O)c34)cn2)CC1 [Example 99, 2-(1-(5-((2-(azepan-1-yl)-5-oxo-5,6-dihydropyrimido[4,5-d]pyridazin-4-yl)amino)pyridin-2-yl)piperidin-4-yl) acetamide] | < 50 nM | < 10 nM | 94% | 44 nM |
| O=C(c1ccc(Nc2nc(N3CCCCCC3)nc3cn[nH]c(=O)c23)cc1)N1CCNCC1 [Example 104, 2-(azepan-1-yl)-4-((4-(piperazine-1-carbonyl)phenyl)amino)pyrimido[4,5-d]pyridazin-5(6H)-one hydrochloride] | < 10 nM | < 50 nM | 100% | 110 nM |
| O=c1[nH]ncc2nc(N3CCCCCC3)nc(Nc3ccc(OCCN4CCNCC4)cc3)c12 [Example 107, 2-(azepan-1-yl)-4-((4-(2-(piperazin-1-yl)ethoxy)phenyl)amino)pyrimido[4,5-d]pyridazin-5(6H)-one] | < 50 nM | < 10 nM | 91% | 94 nM |
| N#CCC1CCN(c2nc(Nc3ccc(N4CCC(CC(=O)O)CC4)nc3)c3c(=O)[nH]ncc3n2)CC1 [Example 116, 2-(1-(5-((2-(4-(cyanomethyl)piperidin-1-yl)-5-oxo-5,6-dihydropyrimido[4,5-d]pyridazin-4-yl)amino)pyridin-2-yl)piperidin-4-yl)acetic acid] | < 50 nM | < 50 nM | 65% | 273 nM |
| O=C(CC1CCN(c2ccc(Nc3nc(N4CCCCCC4)nc4cn[nH]c(=O)c34)cc2)CC1)N(CCO)CCO [Example 118, 2-(1-(4-((2-(azepan-1-yl)-5-oxo-5,6-dihydropyrimido[4,5-d]pyridazin-4-yl)amino)phenyl)piperidin-4-yl)-N,N-bis(2-hydroxyethyl)acetamide] | < 10 nM | < 50 nM | 87% | 153 nM |
| CC1CN(c2nc(Nc3ccc(N4CCC(CC(=O)O)CC4)cc3)c3c(=O)[nH]ncc3n2)CC(C)O1 (centres unmarked) [Example 121, 2-(1-(4-((2-(2,6-dimethylmorpholino)-5-oxo-5,6-dihydropyrimido[4,5-d]pyridazin-4-yl)amino)phenyl)piperidin-4-yl)acetic acid] | < 50 nM | < 50 nM | 98% | 156 nM |
| O=C(O)C[C@H]1CC[C@@H](c2ccc(Nc3nc(N4CCCCCC4)nc4cn[nH]c(=O)c34)cc2)CC1 [Example 123, 2-((1S,4S)-4-(4-((2-(azepan-1-yl)-5-oxo-5,6-dihydropyrimido[4,5-d]pyridazin-4-yl)amino)phenyl)cyclohexyl)acetic acid] | < 10 nM | < 10 nM | 90% | 116 nM |
| O=C(O)C1CC1C1CCN(c2ccc(Nc3nc(N4CCCCCC4)nc4cn[nH]c(=O)c34)cc2)CC1 (centres unmarked) [Example 131, 2-(1-(4-((2-(azepan-1-yl)-5-oxo-5,6-dihydropyrimido[4,5-d]pyridazin-4-yl)amino)phenyl)piperidin-4-yl) cyclopropanecarboxylic acid] | < 10 nM | < 10 nM | 98% | 35 nM |
| O=C(O)CCC1CCN(c2ccc(Nc3nc(-c4ccccc4)nc4cn[nH]c(=O)c34)cc2)CC1 [Example 132, 3-(1-(4-((5-oxo-2-phenyl-5,6-dihydropyrimido[4,5-d]pyridazin-4-yl)amino)phenyl)piperidin-4-yl)propanoic acid] | < 10 nM | < 50 nM | 99% | 24 nM |
| O=C(O)CN1CCCN(c2ccc(Nc3nc(N4CCCCCC4)nc4cn[nH]c(=O)c34)cc2)CC1 [Example 145, 2-(4-(4-((2-(azepan-1-yl)-5-oxo-5,6-dihydropyrimido[4,5-d]pyridazin-4-yl)amino)phenyl)-1,4-diazepan-1-yl)acetic acid] | < 10 nM | < 10 nM | 52% | 98 nM |
